Assay results as given in paper PMC8748916, “Microbial enzymes induce colitis by reactivating triclosan in the mouse gastrointestinal tract” (Nature Communications, 2022).
Values joined by “and” are separate entries in the source; they are usually repeats but may differ in a detail not shown here. Equal values may be shown once.

Assays:
[1] = Antibiotic suppression of gut microbiota: TCS colonic metabolism in mice (80 ppm TCS diet, 4 weeks); format: in vivo; settings: 80 ppm TCS via diet 4 weeks; antibiotic cocktail vs none
Description: This antibiotic composition was used in previous studies by others[20],[21] and us[22],[23]. […] After another 4 weeks, the mice were sacrificed, and their tissues were collected for LC-MS/MS analysis.

[2] = Target engagement: GUSi in colon tissue and TCS to TCS-G ratio in colon digesta by LC-MS/MS; format: in vivo, mice; settings: TCS-treated mice, no GUSi, individual mice
Description: After another 3 weeks, the mice were stimulated with 2% DSS (molecular weight = 36–50 KDa, MP Biomedicals, Solon, OH) in drinking water for 6 days to induce colitis. At end of the experiment, the mice were sacrificed for analysis.
Fig. S15. Orally dosed GUSi reaches the mouse colon and suppresses conversion of TCS -G to TCS. a.
mice were stimulated with DSS to induce colitis. The final GUSi was dosed on day 25 and mice were sacrificed
for analysis on day 27. b. GUSi is detected in the mouse colon 2 days after the final dose of the inhibitor. c.
GUSi treatment reduces the ratio of TCS to TCS-G in colon digesta.
per group. NA: no TCS or TCS-G detected.

[3] = TCS colonic metabolism in conventional vs germ-free Swiss Webster mice; format: in vivo; settings: 6 h after oral gavage of 8 mg/kg TCS, individual mice
[4] = test system: MC38 cells; assay: Inflammatory response of MC38 intestinal epithelial cells (Il-6 RT-qPCR, IL-6 ELISA); format: cell-based, mouse
Description: MC38 intestinal epithelial cells were cultured in Dulbecco’s Modified Eagle Medium (DMEM) supplemented with 10% fetal bovine serum (FBS) and incubated at 37 °C under an atmosphere of 5% CO2. MC38 cells were seeded at 20% confluency and left to settle overnight. Cells were then treated with either 1 μM TCS, TCS-G, or vehicle (DMSO). After 48 h, cells were harvested for RT-qPCR analysis. Cell medium was collected for ELISA analysis using the CBA Mouse Inflammation Kit (BD Sciences) according to the manufacturer’s instructions, and data were acquired using a BD LSR Fortessa flow cytometer (BD Biosciences) and analyzed using FlowJo software (Treestar).
Total RNA of colon tissues and MC38 cells were isolated using Trizol reagent (Ambion) according to the manufacturer’s instruction. RNA was reverse transcribed into cDNA using the High Capacity cDNA Reverse Transcription kit (Applied Biosystem) according to the manufacturer’s instructions. In all, 20 μL PCR reactions were prepared using the Maxima SYBR Green Master Mix (Thermo Fisher Scientific), and qPCR was carried out using a DNA Engine Opticon System (Bio-Rad Laboratories). Mouse-specific primer sequences (Thermo Fisher Scientific) used to detect inflammatory biomarkers are listed in Supplementary Table S6. Gapdh expression was used as an internal control.
a. Cultured murine intestinal epithelial MC38 cells were treated with 1 μM of TCS or TCS-G for 48 h prior to
studying inflammatory responses. b. TCS increases the expression of Il-6, which encodes the pro-inflammatory
n = 3 per group from three independent experiments, * P < 0.05, ** P < 0.01, *** P < 0.001.

[5] = Antibiotic suppression of gut microbiota: kinetics of TCS colonic metabolism after one-time oral gavage; settings: within the 24-h period; 8 mg/kg TCS oral gavage
[6] = LC-MS/MS profiling of TCS metabolism in mice (TCS via diet for 4 weeks); settings: for concentration of free TCS in the colon digesta: mean; for concentration of TCS, TCS-G, TCS-Sulfate: individual mice
[7] = LC-MS/MS of TCS and its metabolites in human stool and urine after use of TCS-containing personal care products; format: in vivo; settings: for TCS metabolites in human stool / TCS metabolites in human urine: Treatment TCS, individual subjects;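 on Profile in stool (%): molar share of summed TCS plus TCS-G plus TCS-sulfate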;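 on Profile in urine (%): molar share of summed TCS plus TCS-G plus TCS-sulfate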;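 on average molar concentration ratio: molar share of summed TCS plus TCS-G plus TCS-sulfate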
Description: To broaden our understanding of TCS metabolic profiles in the gut, we next analyzed TCS metabolism in human subjects. We utilized urine and stool samples from a previous study in which the recruited human subjects were first subjected to a washout period (no usage of TCS-containing products), then were randomly assigned to two groups that used personal care products like toothpaste with or without TCS for up to four months (see the scheme of the experiment in Fig. 1c)[15]. Previous data had established that humans are primarily exposed to TCS via toothpaste that provides a direct oral route to the gastrointestinal tract[16],[17].

[8] = treatment time 0 months (after washout)
[9] = human stool, TCS-exposed subjects
[10] = human urine, TCS-exposed subjects

## Oc1cc(Cl)ccc1Oc1ccc(Cl)cc1Cl [TCS, Triclosan]
[1]
  change of concentration in the fecal content by antibiotic treatment: significantly reduced
[2]
  TCS/TCSG in colon digesta: 69.2572 and 105.161 and 114.057 and 134.536 and 118.012 and 116.121 and 236.945 and 380.254 and 130.474 and 139.078
[3]; CONV Swiss Webster mice
  tcs, tcs-G in colon digesta: 35.08 pmol/mg and 44.23 pmol/mg and 53.2 pmol/mg and 70.03 pmol/mg and 36.57 pmol/mg and 25.88 pmol/mg and 61.48 pmol/mg and 14.87 pmol/mg
[3]; GF Swiss Webster mice
  tcs, tcs-G in colon digesta: 1.71 pmol/mg and 1.97 pmol/mg and 2.79 pmol/mg and 1.05 pmol/mg and 1.69 pmol/mg
[4]; 1 µM, 48 h
  Il-6 gene expression: increased
  medium concentration of IL-6 (ELISA): increased
[4]; MC38 cells, gene expression, replicates
  Il-6 (Fig. S16b): 2.497 and 4.058 and 2.001 and 8.229 and 6.742 and 2.645 and 3.872 and 1.125 and 4.892
[4]; MC38 cells, protein, replicates
  IL-6 (Fig. S16c): 31 pg/mL and 44.92 pg/mL and 38.72 pg/mL and 36.69 pg/mL and 44.27 pg/mL and 53.91 pg/mL and 47.57 pg/mL and 30.74 pg/mL and 39.61 pg/mL
[5]
  reduction of AUC in colon digesta by antibiotic treatment: ~ 40%
[6]; 1 ppm TCS in diet 4 weeks
  concentration of free TCS in the colon digesta: 1.5 pmol/mg tissue
[6]; 10 ppm TCS in diet 4 weeks
  concentration of free TCS in the colon digesta: 14.7 pmol/mg tissue
[6]; 80 ppm TCS in diet 4 weeks
  concentration of free TCS in the colon digesta: 92.2 pmol/mg tissue
[6]; Cecum (digesta), 80 ppm TCS via diet 4 weeks
  concentration of TCS, TCS-G, TCS-Sulfate: 109.26 pmol/mg and 94.56 pmol/mg and 76.97 pmol/mg
[6]; Feces, 10 ppm TCS in diet 4 weeks
  concentration of TCS, TCS-G, TCS-Sulfate: 22.61 pmol/mg and 75.8 pmol/mg
[6]; Feces, 80 ppm TCS in diet 4 weeks
  concentration of TCS, TCS-G, TCS-Sulfate: 290.88 pmol/mg and 142.03 pmol/mg
[6]; Heart, 80 ppm TCS via diet 4 weeks
  concentration of TCS, TCS-G, TCS-Sulfate: 0.98 pmol/mg and 0.71 pmol/mg and 0.63 pmol/mg
[6]; SI 1st section (digesta), 80 ppm TCS via diet 4 weeks
  concentration of TCS, TCS-G, TCS-Sulfate: 15.09 pmol/mg and 9.94 pmol/mg and 15.65 pmol/mg and 19.61 pmol/mg
[6]; SI 2nd section (digesta), 80 ppm TCS via diet 4 weeks
  concentration of TCS, TCS-G, TCS-Sulfate: 19.75 pmol/mg and 18.37 pmol/mg and 9.51 pmol/mg and 14.12 pmol/mg and 15.69 pmol/mg and 13.92 pmol/mg and 18.94 pmol/mg and 9.21 pmol/mg and 13.42 pmol/mg and 3.48 pmol/mg
[6]; SI 3rd section (digesta), 80 ppm TCS via diet 4 weeks
  concentration of TCS, TCS-G, TCS-Sulfate: 29.24 pmol/mg and 24.80 pmol/mg and 7.10 pmol/mg and 13.01 pmol/mg and 17.21 pmol/mg and 23.02 pmol/mg and 19.18 pmol/mg and 15.52 pmol/mg and 17.98 pmol/mg and 27.55 pmol/mg
[6]; SI 4th section (digesta), 80 ppm TCS via diet 4 weeks
  concentration of TCS, TCS-G, TCS-Sulfate: 31.18 pmol/mg and 38.07 pmol/mg and 17.93 pmol/mg and 37.99 pmol/mg and 55.42 pmol/mg and 35.20 pmol/mg and 31.30 pmol/mg and 21.74 pmol/mg and 18.77 pmol/mg and 46.26 pmol/mg
[6]; digesta of the 4th section of the mouse small intestine, 80 ppm TCS via diet 4 weeks
  share of TCS metabolites found: 36.9%
[6]; fecal content, 80 ppm TCS via diet 4 weeks
  share of TCS metabolites found: 99.1%
[6]; gut sections (colon digesta, cecum digesta, feces), 1, 10 and 80 ppm TCS via diet 4 weeks
  share of detected TCS species present as free TCS: 94-100%
[7]; TCS-exposed human subjects, n=7 urine samples
  Profile in urine (%): 1.57%
[7]; TCS-exposed human subjects, n=23 stool samples
  Profile in stool (%): 99.16%
[7]; [8]
  TCS metabolites in human stool: < LOD and 12.62 pmol/ g stool and 10.84 pmol/ g stool and 388.08 pmol/ g stool and 57.90 pmol/ g stool
  TCS metabolites in human urine: < LOD
[7]; treatment time 1 month
  TCS metabolites in human stool: 1094.80 pmol/ g stool and 225.14 pmol/ g stool and 1049.03 pmol/ g stool and 626.33 pmol/ g stool and 215.36 pmol/ g stool and 317.47 pmol/ g stool
  TCS metabolites in human urine: < LOD
[7]; treatment time 2 months
  TCS metabolites in human stool: 372.82 pmol/ g stool and 713.18 pmol/ g stool and 245.09 pmol/ g stool and 96.24 pmol/ g stool and 905.85 pmol/ g stool
  TCS metabolites in human urine: 8.55 nM urine
[7]; treatment time 3 months
  TCS metabolites in human stool: 515.81 pmol/ g stool and 334.49 pmol/ g stool and 515.22 pmol/ g stool and 400.99 pmol/ g stool and 445.98 pmol/ g stool and 105.82 pmol/ g stool
  TCS metabolites in human urine: < LOD
[7]; treatment time 4 months
  TCS metabolites in human stool: 633.76 pmol/ g stool and 67.29 pmol/ g stool and 968.25 pmol/ g stool and 633.96 pmol/ g stool and 135.75 pmol/ g stool and 295.56 pmol/ g stool
  TCS metabolites in human urine: 3.06 nM urine and 6.42 nM urine and 11.23 nM urine and 5.52 nM urine
[7]; [9]
  average molar concentration ratio: 99.2%
  concentration of free TCS measured in stool (highest): ≤ 1 pmol/mg tissue
  concentration of free TCS measured in stool (highest), equated: ~ 1 µM
[7]; [10]
  TCS concentrations in urine: low-nM range
  average molar concentration ratio: 1.6%
